Assay results from PMC11510563 (Pharmaceutics, 2024).

These molecules were tested against T1, oxytocin receptors (Homo sapiens, UniProt P30559) (assay: calcium fluorimetry reporter assay in Hs 578T cells). Conditions: Fluo-4, L-368,899 0.1-10 μM, SR 49059 0.1 μM, tolvaptan 1 nM.
T1 construct: endogenous in cells; host or cells: Hs 578T breast cancer cells
T1 sequence (P30559 1-389): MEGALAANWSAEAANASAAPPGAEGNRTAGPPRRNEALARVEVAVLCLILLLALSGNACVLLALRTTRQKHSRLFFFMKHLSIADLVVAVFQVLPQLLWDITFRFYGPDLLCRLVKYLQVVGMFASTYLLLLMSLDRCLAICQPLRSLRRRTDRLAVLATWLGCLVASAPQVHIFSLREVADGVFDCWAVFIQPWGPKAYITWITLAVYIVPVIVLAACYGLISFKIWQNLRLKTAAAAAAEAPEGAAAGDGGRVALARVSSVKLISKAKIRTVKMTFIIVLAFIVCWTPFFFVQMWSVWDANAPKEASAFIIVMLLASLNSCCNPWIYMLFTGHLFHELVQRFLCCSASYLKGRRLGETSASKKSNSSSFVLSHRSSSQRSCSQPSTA
Format: cell-based
Method: Twenty-four hours prior to use, Hs 578T cells were seeded in black 96-well plates (80,000 cells in 100 μL of supplemented DMEM per well). On the test day, changes in intracellular calcium ([Ca^2+]i) were measured using a Fluo-4 no wash calcium assay kit (F36206; Thermo Fisher Scientific). Briefly, medium was aspirated and replaced with 100 μL of 1× dye loading solution (Fluo-4 NW mix in 1× HBSS) containing 20 mM 4-(2-hydroxyethyl)-1piperazineethanesulfonic acid (HEPES, Sigma-Aldrich) and 2.5 mM probenecid, which prevents the active transport of Fluo-4 out of the cells. Cells were incubated for 40 min, and then mean fluorescence across each well was measured every 1.6 s for 90 s using a Flexstation 3 (Molecular Devices, Wokingham, UK) with excitation at 485 nm and emission at 525 nm.

| sensitivity of oxytocin-induced [Ca^2+]i increases to the antagonist | SMILES |
| --- | --- |
| not sensitive | Cc1ccccc1C(=O)Nc1ccc(C(=O)N2CCCC(O)c3cc(Cl)ccc32)c(C)c1 (stereo not drawn) [tolvaptan] |
| not sensitive | COc1ccc(S(=O)(=O)N2c3ccc(Cl)cc3[C@](O)(c3ccccc3Cl)[C@@H]2C(=O)N2CCC[C@H]2C(N)=O)cc1OC [SR 49059] |
| sensitive to blockade | Cc1ccccc1N1CCN(S(=O)(=O)C[C@]23CC[C@H](C[C@@H]2NC(=O)[C@@H](N)CCS(C)(=O)=O)C3(C)C)CC1 [L-368,899] |
